# Experimental data taken from patent US20050124562A1, “Bis-quinazoline compounds for the treatment of bacterial infections” (priority 2003, published 2005).
# Test system: S. aureus, E. faecalis, S. pyogenes and S. pneumoniae
# Experiment: Broth microdilution MIC (NCCLS), gram-positive strains
# Assay type: cell-based
# Details: not given
# Experimental: Representative bis-quinazolines were tested for antibacterial activity using the […] microdilution method to determine their minimum inhibitory concentrations (MICs). All compounds were tested using standard methods in accordance with NCCLS guidelines (National Committee for Clinical Laboratory Standards. 2003. Methods for dilution antimicrobial susceptibility testing for bacteria that grow aerobically. Approved Standard M-7 A-6, NCCLS, Wayne, Pa.). The bacterial strains used in the susceptibility tests were obtained from the American Type Culture Collection (ATCC) and included resistant phenotypes such as oxacillin-resistant S. aureus (ORSA) and vancomycin-resistant enterococci (VRE). The minimum bactericidal concentrations (MBCs) were determined for selected organisms. The effect of protein binding on the antibacterial activity of representative bis-quinazolines were determined by conducting MIC tests in the presence of human serum.
row,Compound,MIC [µg/mL]
1,"COc1ccc2nc(Nc3nc(O)c4cccc(C)c4n3)ncc2c1 [Example 20, 2-(6-Methoxy-quinazolin-2-ylamino)-8-methyl-quinazolin-4-ol]",0.06 to 16
2,"COc1cccc2c(C)nc(Nc3nc(O)c4ccccc4n3)nc12 [Example 58, 2-(8-Methoxy-4-methyl-quinazolin-2-ylamino)-quinazolin-4-ol]",0.06 to 16
3,"Cc1nc(Nc2nc(O)c3ccccc3n2)nc2ccc(O)cc12 [Example 16, 2-(4-Hydroxy-quinazolin-2-ylamino)-4-methyl-quinazolin-6-ol]",0.06 to 16
4,"COc1ccc2nc(Nc3nc(O)c4cc(C)ccc4n3)nc(C)c2c1 [Example 63, 2-(6-Methoxy-4-methyl-quinazolin-2-ylamino)-6-methyl-quinazolin-4-ol]",0.06 to 16
5,"CCOc1cccc2nc(Nc3nc(C)c4cc(OC)c(OC)cc4n3)nc(O)c12 [Example 13, 2-(6,7-Dimethoxy-4-methyl-quinazolin-2-ylamino)-5-ethoxy-quinazolin-4-ol]",0.06 to 16
6,"COc1ccc2nc(Nc3nc(O)c4cc(OC)ccc4n3)nc(C)c2c1 [Example 61, 6-Methoxy-2-(6-methoxy-4-methyl-quinazolin-2-ylamino)-quinazolin-4-ol]",0.06 to 16
7,"CCOc1cccc2c(C)nc(Nc3nc(O)c4ccccc4n3)nc12 [Example 59, 2-(8-Ethoxy-4-methyl-quinazolin-2-ylamino)-quinazolin-4-ol]",0.06 to 16

# Same assay, conditions: range against some strains of S. aureus, E. faecalis, S. pyogenes and S. pneumoniae; read-out: MIC
row,Compound,MIC [µg/mL]
1,"COc1ccc2nc(Nc3nc(O)c4ccccc4n3)nc(CF)c2c1.O=C(O)C(F)(F)F [Example 45, 2-(4-Fluoromethyl-6-methoxy-quinazolin-2-ylamino)-quinazolin-4-ol trifluoroacetate salt]",0.06 to 16
2,"COc1ccc2nc(Nc3nc(O)c4cc(N)cc(C)c4n3)nc(C)c2c1.O=C(O)C(F)(F)F [Example 22, 6-Amino-2-(6-methoxy-4-methyl-quinazolin-2-ylamino)-8-methyl-quinazolin-4-ol trifluoroacetate salt]",0.06 to 16
3,"COc1cc2nc(Nc3nc(O)c4cc(OCCNC5CCCCC5O)ccc4n3)nc(C)c2cc1OC.O=C(O)C(F)(F)F (stereo not shown) [Example 181, 2-(6,7-Dimethoxy-4-methyl-quinazolin-2-ylamino)-6-[2-(2-hydroxy-cyclohexylamino)-ethoxy]-quinazolin-4-ol trifluoroacetate salt]",0.06 to 16
4,"COc1cccc2c(C)nc(Nc3nc(O)c4cc([N+](=O)[O-])cc(C)c4n3)nc12.O=C(O)C(F)(F)F [Example 68, 2-(8-Methoxy-4-methyl-quinazolin-2-ylamino)-8-methyl-6-nitro-quinazolin-4-ol trifluoroacetate salt]",0.06 to 16
5,"COc1ccc2nc(Nc3nc(O)c4cc(N)cc(OC)c4n3)nc(C)c2c1.O=C(O)C(F)(F)F [Example 123, 6-Amino-2-(6-methoxy-4-methyl-quinazolin-2-ylamino)-8-methoxy-quinazolin-4-ol trifluoroacetate salt]",0.06 to 16
6,"COc1cc(OC)c2nc(Nc3nc(O)c4cc(OCCCl)ccc4n3)nc(C)c2c1.O=C(O)C(F)(F)F [Example 107, 6-(2-Chloro-ethoxy)-2-(6,8-dimethoxy-4-methyl-quinazolin-2-ylamino)-quinazolin-4-ol trifluoroacetate salt]",0.06 to 16
7,"COc1cc2nc(Nc3nc(O)c4cc(N5CCOCC5)ccc4n3)nc(C)c2cc1OC.O=C(O)C(F)(F)F [Example 114, 2-(6,7-Dimethoxy-4-methyl-quinazolin-2-ylamino)-6-morpholin-4-yl-quinazolin-4-ol trifluoroacetate salt]",0.06 to 16
8,"COc1cc(OC)c2nc(Nc3nc(O)c4cc(OCCN5CCCC5CO)ccc4n3)nc(C)c2c1.O=C(O)C(F)(F)F (stereo not shown) [Example 168, 2-(6,8-Dimethoxy-4-methyl-quinazolin-2-ylamino)-6-[2-(2-hydroxymethyl-pyrrolidin-1-yl)-ethoxy]-quinazolin-4-ol trifluoroacetate salt]",0.06 to 16
9,"COc1cc(OC)c2nc(Nc3nc(O)c4cccc(C)c4n3)nc(C)c2c1.O=C(O)C(F)(F)F [Example 46, 2-(6,8-Dimethoxy-4-methyl-quinazolin-2-ylamino)-8-methyl-quinazolin-4-ol trifluoroacetate salt]",0.06 to 16
10,"COc1ccc(OC)c2c(C)nc(Nc3nc(O)c4cc(C)cc(C)c4n3)nc12.O=C(O)C(F)(F)F [Example 43, 2-(5,8-Dimethoxy-4-methyl-quinazolin-2-ylamino)-6,8-dimethyl-quinazolin-4-ol trifluoroacetate salt]",0.06 to 16
11,"COc1cc2nc(Nc3nc(O)c4cc(OCCN5CCN(CCO)CC5)ccc4n3)nc(C)c2cc1OC.O=C(O)C(F)(F)F [Example 175, 2-(6,7-Dimethoxy-4-methyl-quinazolin-2-ylamino)-6-{2-[4-(2-hydroxy-ethyl)-piperazin-1-yl]-ethoxy}-quinazolin-4-ol trifluoroacetate salt]",0.06 to 16
12,"COCCOc1c(OC)ccc2c(C)nc(Nc3nc(O)c4cccc(OC)c4n3)nc12.O=C(O)C(F)(F)F [Example 81, 8-Methoxy-2-[7-methoxy-8-(2-methoxy-ethoxy)-4-methyl-quinazolin-2-ylamino]-quinazolin-4-ol trifluoroacetate salt]",0.06 to 16
13,"COc1cc2nc(Nc3nc(O)c4cc(OCCn5cnnc5)ccc4n3)nc(C)c2cc1OC.O=C(O)C(F)(F)F [Example 174, 2-(6,7-Dimethoxy-4-methyl-quinazolin-2-ylamino)-6-(2-[1,2,4]triazol-4-yl-ethoxy)-quinazolin-4-ol trifluoroacetate salt]",0.06 to 16
14,"COc1cc2nc(Nc3nc(O)c4c5c(ccc4n3)OCO5)nc(C)c2cc1OC.O=C(O)C(F)(F)F [Example 109, 7-(6,7-Dimethoxy-4-methyl-quinazolin-2-ylamino)-1,3-dioxa-6,8-diaza-cyclopenta[a]naphthalen-9-ol trifluoroacetate salt]",0.06 to 16
15,"COCCOc1ccc2nc(Nc3nc(O)c4cc([N+](=O)[O-])cc(C)c4n3)nc(C)c2c1.O=C(O)C(F)(F)F [Example 69, 2-[6-(2-Methoxy-ethoxy)-4-methyl-quinazolin-2-ylamino]-8-methyl-6-nitro-quinazolin-4-ol trifluoroacetate salt]",0.06 to 16
16,"COc1ccc2nc(Nc3nc(O)c4cc(N)ccc4n3)nc(C)c2c1.O=C(O)C(F)(F)F [Example 47, 6-Amino-2-(6-methoxy-4-methyl-quinazolin-2-ylamino)-quinazolin-4-ol trifluoroacetate salt]",0.06 to 16
17,"COc1cc2nc(Nc3nc(O)c4cc(OCCN(C)Cc5ccncc5)ccc4n3)nc(C)c2cc1OC.O=C(O)C(F)(F)F [Example 184, 2-(6,7-Dimethoxy-4-methyl-quinazolin-2-ylamino)-6-[2-(methyl-pyridin-4-ylmethyl-amino)-ethoxy]-quinazolin-4-ol TFA salt]",0.06 to 16
18,"COc1cc2c(C)nc(Nc3nc(O)c4cccc(OC)c4n3)nc2c(OC)c1OC.O=C(O)C(F)(F)F [Example 116, 8-Methoxy-2-(6,7,8-trimethoxy-4-methyl-quinazolin-2-ylamino)-quinazolin-4-ol trifluoroacetate salt]",0.06 to 16
19,"COc1cc2c(C)nc(Nc3nc(O)c4ccccc4n3)nc2cc1F.O=C(O)C(F)(F)F [Example 32, 2-(7-Fluoro-6-methoxy-4-methyl-quinazolin-2-ylamino)-quinazolin-4-ol trifluoroacetate salt]",0.06 to 16
20,"COc1ccc2c(C)nc(Nc3nc(O)c4ccccc4n3)nc2c1OC.O=C(O)C(F)(F)F [Example 74, 2-(7,8-Dimethoxy-4-methyl-quinazolin-2-ylamino)-quinazolin-4-ol trifluoroacetate salt]",0.06 to 16
21,"CSc1ccc2nc(Nc3nc(O)c4ccccc4n3)nc(C)c2c1.O=C(O)C(F)(F)F [Example 35, 2-(4-Methyl-6-methylsulfanyl-quinazolin-2-ylamino)-quinazolin-4-ol trifluoroacetate salt]",0.06 to 16
22,"COc1cc2nc(Nc3nc(O)c4cc(OCCN5CCCCC5CO)ccc4n3)nc(C)c2cc1OC.O=C(O)C(F)(F)F (stereo not shown) [Example 173, 2-(6,7-Dimethoxy-4-methyl-quinazolin-2-ylamino)-6-[2-(2-hydroxymethyl-piperidin-1-yl)-ethoxy]-quinazolin-4-ol trifluoroacetate salt]",0.06 to 16
23,"COc1cc2c(C)nc(Nc3nc(O)c4cccc(F)c4n3)nc2c(OC)c1OC.O=C(O)C(F)(F)F [Example 118, 8-Fluoro-2-(6,7,8-trimethoxy-4-methyl-quinazolin-2-ylamino)-quinazolin-4-ol trifluoroacetate salt]",0.06 to 16
24,"COc1cc(OC)c2nc(Nc3nc(O)c4c(OC)c(OC)ccc4n3)nc(C)c2c1.O=C(O)C(F)(F)F [Example 134, 2-(6,8-Dimethoxy-4-methyl-quinazolin-2-ylamino)-5,6-dimethoxy-quinazolin-4-ol TFA salt]",0.06 to 16
25,"COc1cc2nc(Nc3nc(O)c4cc(OCCO)ccc4n3)nc(C)c2cc1OC.O=C(O)C(F)(F)F [Example 136, 2-(6,7-Dimethoxy-4-methyl-quinazolin-2-ylamino)-6-(2-hydroxy-ethoxy)-quinazolin-4-ol trifluoroacetate salt]",0.06 to 16
26,"COc1cc2c(C)nc(Nc3nc(O)c4cccc(OC)c4n3)nc2cc1N(C)C.O=C(O)C(F)(F)F [Example 127, 2-(7-Dimethylamino-6-methoxy-4-methyl-quinazolin-2-ylamino)-8-methoxy-quinazolin-4-ol trifluoroacetate salt]",0.06 to 16
27,"COCCOc1ccc2nc(Nc3nc(O)c4cccc(OC)c4n3)nc(C)c2c1.O=C(O)C(F)(F)F [Example 80, 8-Methoxy-2-[6-(2-methoxy-ethoxy)-4-methyl-quinazolin-2-ylamino]-quinazolin-4-ol trifluoroacetate salt]",0.06 to 16
